Patent US8236510B2, “Protein showing enhanced expression in cancer cells” (Agensys, Inc., priority 1999, dated 2012)
Like-named read-outs stand apart in the source and are kept apart here.

Experiments:
[1] = system: PC3-101P3A11 cells; test: Proliferation of PC3-101P3A11 and PC3-neo cells; format: cell-based, human; details: PC3-101P3A11 cells, dose dependent
Experimental: Since adenylate cyclase activity modulates intracellular levels of cAMP and induce downstream signaling events such as activation of protein kinase A, calcium and ERK MAPK signaling (Pierce K. L., et al, Oncogene. 2001, 20: 1532), we determined that PTX, an inhibitor of adenylate cyclase signaling, prevents 101P3A11-mediated ERK phosphorylation along with inhibiting cAMP accumulation (FIG. 33 and FIG. 34). PC3-neo and PC3-101P3A11 cells were grown overnight in 0.1% FBS in media alone or in the presence of pertussis toxin (PTX). Cells were stimulated with 0.1% or 10% FBS (FIG. 33) or 10% FBS, EGF or GRP (FIG. 34). Cells were lysed and analyzed by Western blotting using anti-Phospho-ERK mAb. Expression of 101P3A11 mediated ERK phosphorylation by 10% FBS in PC3 cells, which was inhibited by PTX (FIG. 33 and FIG. 34).
GPCR transmit their signal by activating trimeric G proteins. Once GPCRs are activated, the associated Ga subunit binds GTP, dissociates from the receptor and participates in downstream signaling events (Schild, D., and Restrepo, D. Physiol Rev. 1998, 78:429-66). In order to determine that inhibition of Ga subunits has an effect on 101P3A11 mediated cell growth, the effect of two Ga inhibitors on the proliferation of 3T3-101P3A11 cells was investigated. Control 3T3 and 3T3-101P3A11 cells were grown in the presence or absence of suramin or its derivative NF 449 (Sigma). Cells were analyzed for proliferation 72 hours later (FIG. 35). The experiment was performed in triplicate. […] This response was 101P3A11 specific as suramin and NF449 had no effect on the proliferation of control 3T3 cells. Similarly, inhibition of G protein activation by suramin and NF449 in PC3 cells inhibits the proliferation of PC3-101P3A11 cells grown in 5% FBS (Figure M4). […] This ERK phosohorylation and activation was inhibited by suramin and NF449 in PC3-101P3A11 and 3T3-101P3A11 cells. ERK phosphorylation was inhibited in a dose dependent manner in PC3-101P3A11 cells treated with suramin. […]

[2] = system: 3T3-101P3A11 tumors; test: Subcutaneous growth of 3T3-101P3A11 tumors in SCID mice; format: in vivo
Experimental: (2) Regulated expression under control of an inducible vector system, such as ecdysone, tet, etc., can be used provided such promoters are compatible with the host cell systems. […] FIG. 21 compares subcutaneous growth of control 3T3-neo and 3T3-101P3A11 cells. One million cells stably expressing neo or 101P3A11 were injected subcutaneously in SCID mice along with matrigel. Tumor volume was evaluated by caliper measurements. […] Additionally, SCID mice were implanted with the same 3T3-101P3A11 cells orthotopically in the prostate to determine if 101P3A11 has an effect on local growth in the prostate or on the ability of the cells to metastasize, specifically to lungs or lymph nodes. […] In an analogous manner, cells can be implanted orthotopically in the bladder, colon or kidney. (Saffran, D., et al., PNAS 10:1073-1078; Fu, X., et al., Int. J. Cancer, 1991, 49: p. 938-939; Chang, S., et al., Anticancer Res., 1997, 17: p. 3239-3242; Peralta, E. A., et al., J. Urol., 1999, 162: p. 1806-1811). The tumor enhancing effect of 101P3A11 was also observed when 101P3A11 is expressed in prostate cancer cells such as PC3 and introduced into the prostate of SCID mice (Figure M11). A 2.5 fold increase in tumor weight is observed in tumors expressing 101P3A11 relative to control cells.
Furthermore, these assays is useful to confirm the anti-101P3A11 inhibitory effects of candidate therapeutic compositions, such as for example, 101P3A11 antibodies or intrabodies, and 101P3A11 antisense molecules or ribozymes, or 101P3A11 directed small molecules. In FIG. 22, we depict the effect of a small molecule, pertussis toxin (PTX) on tumor formation by 3T3-101P3A11 cells. In this experiment, SCID mice were injected with 3T3-101P3A11 alone or in conjunction with PTX. Each mouse was given 5 doses of PTX at 3-4 days interval. Tumor volume was evaluated by caliper measurements. […] Similarly, treatment with the G-protein inhibitor suramin inhibits the growth of 3T3-101P3A11 tumors (Figure M13).

[3] = system: cAMP accumulation in PC3-101P3A11 cells; test: cAMP accumulation in PC3 and PC3-101P3A11 cells (enzyme immunoassay); format: cell-based, human
Experimental: Olfactory receptors are known to regulate biological responses by activating adenylate cyclase. In order to confirm that 101P3A11 functions as a GPCR and mediates the activation of adenylate cyclase, cAMP accumulation in PC3 and PC3-101P3A11 cells were compared (FIG. 32). Control PC3 and PC3-101P3A11 cells were grown in a low concentration of fetal bovine serum (FBS) for 14 hrs in the presence or absence of pertussis toxin (PTX). The cells were stimulated with 0.1% or 10% FBS, washed in PBS and lysed using a lysis buffer provided by Amersham Pharmacia. Intracellular concentration of cAMP was measured using a commercially available enzyme immunoassay (EIA) according to the manufacturer's recommendations (Amersham Pharmacia). Each assay was performed in duplicate. Calculations of cAMP concentrations were based on OD450 of the standard curve. Expression of 101P3A11 induced a four-fold increase in cAMP accumulation in the absence of stimulation. Treatment with 10% FBS further enhanced cAMP accumulation in PC3-101P3A11 cells to nearly seven-fold over control PC3-neo cells. 101P3A11 mediated cAMP accumulation was inhibited by PTX.
In order to confirm that anti-101P3A11 pAb has a detectable effect on cAMP accumulation, PC3 and PC3-101P3A11 cells were grown in 0.1% FBS and treated with anti-101P3A11 pAb. Cells were analyzed for cAMP content as described in FIG. 32. […]

## pertussis toxin [PTX]
[1]
  inhibition of proliferation: inhibited
[2]; 5 doses at 3-4 days interval, tumor volume by caliper
  inhibition of tumor growth: inhibits tumor growth in a dose dependent manner
[2]; 5 doses at 3-4 days interval, tumor volume by caliper, listed as Pertussis toxin
  inhibition of tumor growth: inhibit
[2]; 5 time per week, after 25 days
  inhibition of tumor growth: 70%
[3]
  inhibition of 101P3A11 mediated cAMP accumulation: partially inhibited
[3]; listed as pertussis toxin
  inhibition of 101P3A11 mediated cAMP accumulation: inhibited
